Earlier results as cited in patent US7612202B2, “Process for preparing temozolomide” (Chemagis, Ltd., priority 2005, dated 2009).
Entries after “also recorded” stand apart in the source; their conditions may differ.

Key:
[1] = administered Temozolomide dose

- stability at acidic pH (aqueous buffers, pH<5): stable
- in vitro half-life (phosphate buffer at 37° C. and pH 7.4): 1.9 h
- percentage of administered dose metabolized to TMA [1]: about 2%
Structure (SMILES): Cn1nnc2c(C(N)=O)ncn2c1=O [Temozolomide, 8-carbamoyl-3-methyl-imidazo[5,1-d]-1,2,3,5-tetrazin-4(3H)-one]
- stability at pH>7 (aqueous buffers, pH>7): labile; also recorded: rapidly decomposes to MTIC
